These molecules were tested against T1, P2X purinoceptor 3 (Homo sapiens, UniProt P56373) (assay: Inhibition Assay: Stably expressing cell line (C6BU-1 cell transfected with human P2X3 receptor gene (GenBank accession number Y07683) was used. The cells were seeded in a 96-well microtiter plate at a concentration of 8000 cells/well and cultured in the medium (8.3% fetal bovine serum, 8.3% horse serum, 1% antibiotic and antifungal in DMEM) for one day at 37° C. under 5% carbon dioxide atmosphere. The medium was replaced with 4 μM Fluo-3-AM solution (20 mM HEPES, 137 mM NaCl, 2.7 mM KCl, 0.9 in M MgCl2, 5.0 mM CaCl2, 5.6 D-glucose, 2.5 mM probenecid, 1.0% BSA, and 0.08% Pluronic F-127, pH 7.5) and incubated at 37° C. under 5% dioxide carbon atmosphere for one hour. The plate was washed with washing buffer (20 mM HEPES, 137 mM NaCl, 2.7 mM KCl, 0.9 mM MgCl2, 5.0 mM CaCl2, 5.6 mM D-glucose, 2.5 mM probenecid, pH 7.5), and each well was added with 40 μL of this buffer. The plate was placed in High-Throughput Screening System FDSS 3000 (Hamamatsu Photonics K.K.). Measurement of fluorescence inte).
T1 sequence (P56373 whole entry): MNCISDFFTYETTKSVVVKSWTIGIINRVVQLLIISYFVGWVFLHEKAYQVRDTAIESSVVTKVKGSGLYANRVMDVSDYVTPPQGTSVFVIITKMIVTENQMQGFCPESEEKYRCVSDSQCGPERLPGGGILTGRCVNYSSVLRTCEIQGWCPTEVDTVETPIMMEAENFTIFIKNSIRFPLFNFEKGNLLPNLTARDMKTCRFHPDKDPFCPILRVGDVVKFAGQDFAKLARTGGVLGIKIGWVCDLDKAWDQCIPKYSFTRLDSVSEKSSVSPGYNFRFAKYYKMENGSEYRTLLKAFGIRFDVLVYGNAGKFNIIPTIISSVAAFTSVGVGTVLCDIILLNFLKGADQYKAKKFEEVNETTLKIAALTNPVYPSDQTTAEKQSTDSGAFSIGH
`CCOC(=O)c1cnc(Nc2ccc(OC(C)C)c(F)c2)n(Cc2ccc(Cl)cc2)c1=O` gave an IC50 of 71 nM.
For `CCOC(=O)c1cn(Cc2ccc(Cl)cc2)c(Nc2ccc(OC(C)C)c(F)c2)nc1=O`, the IC50 was 108 nM.
`CCOC(=O)Nc1cnc(Nc2ccc(OC(C)C)c(F)c2)n(Cc2ccc(Cl)cc2)c1=O` showed an IC50 of 33 nM.

Source: ChEMBL document CHEMBL3886411, “Heterocyclic derivative and pharmaceutical composition comprising the same” (2015)
